Entries after “also recorded” stand apart in the source; their conditions may differ.
Columns and labels:
intracellular apoE = experiment: SDS-PAGE/Western blot of intracellular apoE levels in E3 astrocyte cells; assay type: cell-based, mouse; conditions: 10 μM, 24 hrs, Western blot, FIGS. 6 and 7
Description: (§1) Western blot protocol and analysis was used to determine the LDLR levels in the E3 astrocyte cells. The western blot, otherwise known as a protein immunoblot, is a widely used analytical technique used to detect specific proteins in a cell culture or tissue sample. It uses gel electrophoresis to separate proteins by 3-D structure or denatured proteins by the length of the polypeptide. The proteins are then transferred to a membrane (typically nitrocellulose or PVDF), where they are stained with antibodies specific to the target protein. […] FIGS. 6 and 7 show gel images showing the effects the claimed compounds have on the target proteins. The protein bands show the presence and amount of each target protein present in the media from treated cells (compound numbers shown in the column headers).
(§2) In this case, after the 24-hour culture period, the treated cell media from cells treated with each respective compound were run by electrophoresis on polyacrylamide gel containing sodium dodecyl sulfate (SDS). The proteins from the SDS-PAGE process were then transferred to a nitrocellulose […] and stained.
FIGS. 6 and 7 show the presence of the following proteins in mouse E3 astrocyte cells: AbcA1, LDLR, ApoE3, and GAPDH. […]
Intracellular apoE levels as measured in FIGS. 6 and 7 are the amounts of apoE inside of cells. […]

LDLR = experiment: SDS-PAGE/Western blot of LDLR expression in E3 astrocyte cells; assay type: cell-based, mouse; conditions: 10 μM, 24 hrs, Western blot, FIGS. 6 and 7
Protocol: Experiments were set up to test whether the claimed compounds increase LDLR expression in cortical astrocyte cells. The experiments involved treating mouse cortical astrocyte cells (E3 astrocyte cells) with the claimed compounds at 10 μM concentration for an incubation time of 24 hrs. DMSO solvent was used as a negative control, because the compounds were dissolved in DMSO when applied to the cells.
as §1, §2
(§3) FIGS. 6 and 7 show the presence of the following proteins in mouse E3 astrocyte cells: AbcA1, LDLR, ApoE3, and GAPDH. The GAPDH protein serves as the loading control protein for the western blot analysis. For each of the claimed compounds, FIGS. 6 and 7 show three samples run to determine the presence and amount of each indicated protein. The three samples for each treatment compound are indicated by the line under the compound number—the line stretches across three columns of protein bands.
(§4) The E3 astrocyte cells (1.6×10^4 cells/96-well plate) were grown for 1 day in RPMI, followed by a 24 hour equilibration in serum-free Opti-MEM (Life Technologies). Treatments were carried out in triplicate with […] of fresh Opti-MEM containing 10 μM of compound or vehicle (0.1% DMSO) for 24 hours. After the incubation time, the cellular media was collected as samples.
(§5) The collected samples were prepared for SDS-PAGE and western blot analysis by centrifuging and then extracting the protein by TCA-precipitation. The extracted protein was then resuspended in a Tris buffer.
(§6) After incubation and collection, the samples were run on a SDS-polyacrylamide gel (10% SDS). The SDS-polyacrylamide gel comprises the following:
(§7) Each sample was prepared to run on the SDS-polyacrylamide gel. About 20 μL of each sample was prepared to be run in the gel. The samples were prepared comprising the following:
(§8) The SDS-PAGE process was run with SDS-PAGE running buffer (Tris base, glycine, and 10% SDS) at 150 V until the dye front reached the bottom of the gel.
(§9) For the western blot portion of the analysis, the separated protein bands in the gel are then transferred to a nitrocellulose membrane by methods well known in the art. Following the western blot transfer, the blot is rinsed several times with dH2O to remove the salts. After blocking unreacted sites on the nitrocellulose membrane, all protein bands are stained with 0.5% Ponceau S (0.5 g Ponceau S, 1 ml Glacial HAc, 99 ml dH2O) and the target protein antibody.
(§10) The antibodies used for staining AbcA1 were obtained from Novus (NB100-2068). The antibodies used for staining LDLR were obtained from MBL International (JM-3839). The antibodies used for staining intracellular apoE were obtained from Meridian Life Science (K74180B). The antibodies used for staining GAPDH were obtained from Santa Cruz (sc-25778).

apoE3 = experiment: ELISA of apoE3 levels in conditioned media of compound-treated mouse cortical astrocyte cells; assay type: cell-based; conditions: 10 μM compound, 24 hours, normalized to cell protein, relative to DMSO treated cells
Protocol: ApoE inhibition can be readily determined by any one of several assays and techniques known to those of ordinary skill in the art, including the enzyme-linked immunosorbant assay (ELISA). In the experimental results shown in Table 2 and FIG. 5, the ELISA assay was carried out on cortical astrocyte cells from mice. Astrocyte cells produce apoE, LDLR and AbcA1 proteins.
The experiments involved treating mouse cortical astrocyte cells with the claimed compounds at 10 μM concentration for an incubation time of 24 hrs. DMSO solvent was used as a negative control, because the compounds were dissolved in DMSO when applied to the cells.
The ELISA technique involves immobilizing an apoE-specific capture antibody to a 96-well plate, addition of sample (conditioned medium from mouse cortical astrocyte cells treated with the compound for 24 hours), and detection of the bound apoE using a second apoE-specific biotinylated antibody and streptavidin-HRP.
The Mabtech ELISA kit detects the presence of the three apoE isoforms: apoE2, apoE3, and apoE4.
To obtain the data shown in Table 2 and FIG. 5, the mouse cortical astrocyte cells were maintained in DMEM medium (Invitrogen) supplemented with 10 mM HEPES, 1 mM sodium pyruvate, 4.5 g/L glucose, 1% penicillin/streptomycin, and 10% fetal bovine growth serum (Invitrogen) at 37° C., with 5% CO2.
The cells (6×10^4 cells/24-well plate) were grown for 1 day in RPMI, followed by a 24 hour equilibration in serum-free Opti-MEM (Life Technologies). Treatments were carried out in triplicate with […] of fresh Opti-MEM containing 10 μM of compound or vehicle (0.1% DMSO) for 24 hours. […] ApoE concentration in the sample was calculated based on a standard curve derived using known amounts of purified apoE (from Biodesign).
The protein levels in the cells in the 24-well plates were measured using BCA Protein Assay Kit (from Pierce) and used to normalize the data. […] Sample apoE3 concentrations were represented relative to the DMSO treated cells.
The bars in FIG. 5 reflect the respective mean level apoE3 in the media for each compound with an indication of one […].

AbcA1 = experiment: SDS-PAGE/Western blot of AbcA1 expression in E3 astrocyte cells; assay type: cell-based, mouse; conditions: 10 μM, 24 hrs, Western blot, FIGS. 6 and 7
Description: as §1, §2, §3
AbcA1 protein plays a key role in regulating cholesterol in biological systems and therefore affects amyloid beta plaque formation. The goal of the biological screen (results shown in FIGS. 6 and 7) was to find compounds that prevent amyloid beta (Aβ) plaque formation, one of the deleterious causes of Alzheimer's Disease.
as §4, §5, §6, §7, §8, §9, §10

Row | Compound | intracellular apoE expression/levels compared to the DMSO control (intracellular apoE) | LDLR expression (amount of LDLR protein) compared to the DMSO control (LDLR) | ApoE3 Levels in Cell Media, Average of Three Tests (apoE3) | ApoE3 Levels in Cell Media, Test 1 (apoE3) | ApoE3 Levels in Cell Media, Test 2 (apoE3) | ApoE3 Levels in Cell Media, Test 3 (apoE3) | AbcA1 expression compared to the DMSO control (AbcA1)
1 | CCCCN(CCCC)S(=O)(=O)c1cccc2ccccc12 [Compound 127, naphthalene-1-sulfonic acid dibutylamide] | decreasing | increased | 75.73 % of the DMSO control | 75.36 % of the DMSO control | 78.18 % of the DMSO control | 73.66 % of the DMSO control | increases
2 | CCN(CC)Cc1ccc2ccccc2c1 [Compound 140] |  | increased; also recorded: increasing LDLR expression slightly | 90.9673 % of the DMSO control | 91.46 % of the DMSO control | 97.9104 % of the DMSO control | 83.54 % of the DMSO control | increases AbcA1 expression significantly; also recorded: increase

Reference: patent US10214502B2, “Method of inhibiting apolipoprotein-E expression while increasing expression of at least one of LDL-receptor protein or AbcA1 protein comprising administering a small compound” (California State University, Fresno, priority 2016, dated 2019)
